Assay results from patent publication US9498480B2 (Bayer Intellectual Property GmbH, priority 2012, dated 2016).

Tested on: recombinant guanylate cyclase reporter cell line
Assay: Effect on a recombinant guanylate cyclase reporter cell line
Assay type: cell-based
Conditions: representative values, read-out: MEC (minimum effective concentration)
Experimental: B-2. Effect on a Recombinant Guanylate Cyclase Reporter Cell Line
The cellular activity of the compounds according to the invention is determined using a recombinant guanylate cyclase reporter cell line, as described in F. Wunder et al., Anal. Biochem. 339, 104-112 (2005).

## Nc1nc(-c2nn(CCC(F)(F)C(F)(F)F)c3ncc(F)cc23)nc2ncccc12 [Example 10, 2-[5-Fluoro-1-(3,3,4,4,4-pentafluorobutyl)-1H-pyrazolo[3,4-b]pyridin-3-yl]pyrido[2,3-d]pyrimidine-4-amine]
  minimal effective concentration: 0.3 µM

## COc1n[nH]c2nc(-c3nn(Cc4ncccc4F)c4ncc(F)cc34)nc(N)c12 [Example 4, 6-{5-Fluoro-1-[(3-fluoropyridin-2-yl)methyl]-1H-pyrazolo[3,4-b]pyridin-3-yl}-3-methoxy-1H-pyrazolo[3,4-d]pyrimidine-4-amine]
  minimal effective concentration: 0.3 µM

## CCN(CC)c1n[nH]c2nc(-c3nn(Cc4ncccc4F)c4ncc(F)cc34)nc(N)c12 [Example 2, N^3,N^3-Diethyl-6-{5-fluoro-1-[(3-fluoropyridin-2-yl)methyl]-1H-pyrazolo[3,4-b]pyridin-3-yl}-1H-pyrazolo[3,4-d]pyrimidine-3,4-diamine]
  minimal effective concentration: 0.1 µM

## Cc1n[nH]c2nc(-c3nn(CCC(F)(F)C(F)(F)F)c4ncc(F)cc34)nc(N)c12 [Example 8, 6-[5-Fluoro-1-(3,3,4,4,4-pentafluorobutyl)-1H-pyrazolo[3,4-b]pyridin-3-yl]-3-methyl-1H-pyrazolo[3,4-d]pyrimidine-4-amine]
  minimal effective concentration: 0.1 µM

## Cc1n[nH]c2nc(-c3nc(Cc4ccccc4F)n4ncccc34)nc(N)c12 [Example 7, 6-[7-(2-Fluorobenzyl)imidazo[1,5-b]pyridazin-5-yl]-3-methyl-1H-pyrazolo[3,4-d]pyrimidine-4-amine]
  minimal effective concentration: 0.01 µM

## Cc1n[nH]c2nc(-c3nn(Cc4ncccc4F)c4ncc(F)cc34)nc(N)c12 [Example 1, 6-{5-Fluoro-1-[(3-fluoropyridin-2-yl)methyl]-1H-pyrazolo[3,4-b]pyridin-3-yl}-3-methyl-1H-pyrazolo[3,4-d]pyrimidine-4-amine]
  minimal effective concentration: 0.3 µM

## CCN(CC)c1n[nH]c2nc(-c3nn(CCC(F)(F)C(F)(F)F)c4ncc(F)cc34)nc(N)c12 [Example 9]
  minimal effective concentration: 0.03 µM

## O=c1[nH]c2nc(-c3nn(Cc4ccccc4F)c4ncc(F)cc34)nc(NCC3CC3)c2n1CC(F)(F)F [Example 5, 6-[(Cyclopropylmethyl)amino]-2-[5-fluoro-1-(2-fluorobenzyl)-1H-pyrazolo[3,4-b]pyridin-3-yl]-7-(2,2,2-trifluoroethyl)-7,9-dihydro-8H-purin-8-one]
  minimal effective concentration: 0.3 µM

## Nc1nc(-c2nn(Cc3ncccc3F)c3ncc(F)cc23)nc2ncccc12 [Example 3, 2-{5-Fluoro-1-[(3-fluoropyridin-2-yl)methyl]-1H-pyrazolo[3,4-b]pyridin-3-yl}pyrido[2,3-d]pyrimidine-4-amine]
  minimal effective concentration: 10 µM
